Laboratory results: US12171776B2, “Methods for treatment and prophylaxis of HIV and AIDS” (Merck Sharp & Dohme LLC, priority 2016, dated 2024)
Where two headings read alike, the source gives them in different places. Values belong to the compound of their own block, whether it stands above or below them.

Assays:
SIVmac251 = test: Once-weekly efficacy in an SIV infected rhesus monkey model of HIV-infection; format: in vivo; details: SIV-infected monkeys
Experimental: Once-Weekly Efficacy in an SIV Infected Rhesus Monkey Model of HIV-Infection.
Oral efficacy studies were conducted at New Iberia Research Center (NIRC), Lafayette, Louisiana Following treatment with BAYTRIL® (5 mg/kg, IM, SID) for 5 days, 20 monkeys were inoculated intravenously with SIVmac251. After 3 days, venous blood was collected every 2-5 days (2× per week) for viral load testing and monitored to stable viremia (wherein 3 consecutive samples were within 3-fold of each other following acute viremia peak). Plasma SIV viral RNA levels were determined using a branched DNA technique at Siemens Diagnostics, Berkeley, California.
Following determination of stable viremia, SIV-infected monkeys were randomized by age, weight, and viral load (n=3 per group). A 2-arm adaptive design was employed in which results from Arm 1 informed the doses for Arm 2. In Arm 1, animals received two once-weekly doses of vehicle, 1.3 mg/kg EFdA, or 13 mg/kg EFdA administered via oral gavage. In Arm 2, animals received 3.9 mg/kg or 18.2 mg/kg EFdA once-weekly or 0.19 mg/kg EFdA once daily for two weeks. Blood (4 ml) was drawn for viral load determinations during the treatment period on days −2, 0 (dosing day), 1, 2, 3, 5, 7 (dosing day), 8, 9, 10, 12, and 14, and then two times per week for 3 weeks during the washout period. In addition, blood (1 ml) was drawn on days 0 (2 hrs post dose), 1 (24 hr post dose), 7 (2 hrs post dose), and 8 (24 hrs post dose) for EFdA pharmacokinetic assessment.
SIV RNA for genotyping was isolated from 140 μl plasma using the QIAamp Viral RNA Mini kit (Cat #52904/52906). The reverse transcriptase region of SIVmac251 was reverse transcribed and amplified using SuperScript III RT/Platinum polymerase, primers S251RTF1 ([…] [2732-2751]) and S251RTR1 ([…] [4206-4225]) and 8 μl template RNA in 20 μl reactions. A nested PCR reaction was carried out using 3.5 μl of the product from the first reaction with TaKaRa LA Taq and primers S251RTF2 ([…] [2750-2769]) and S251RTR2 ([…] [4169-4188]) in 50 μl reactions. After verifying size of ˜1.5 kb by gel electrophoresis, PCR products were purified using ExoSAP-IT (Affymetrix; cat #78201) and adjusted to 15 ng/ml. PCR products (10 μl) were mixed with 5 μl 5 μM sequencing primers S251RTS5 ([…] [2760-2779]), s251RTS6 ([…] [3266-3285]), or S251RTS7 ([…] [3755-3774]). DNA sequencing was carried out at Genewiz (115 Corporate Blvd, South Plainfield, NJ 07080).

[1] = Phase I single rising dose pharmacokinetics of oral EFdA suspension in healthy adults; format: in vivo, human
Experimental: (§1) Pharmacokinetics of EFdA Following Administration of Oral Doses in Healthy Humans.
(§2) The pharmacokinetics of EFdA were evaluated in Phase I single and multiple rising dose studies. In the single dose study, single oral doses of the oral suspension of EFdA from 5 to 400 mg were administered to three alternating panels of 8 healthy adult subjects. Within each panel, subjects were administered single doses of EFdA (n=6) or matching placebo (n=2) in a blinded fashion in up to 3 treatment periods. Panel A received 15 mg and 200 mg. Panel B received 30 mg, 400 mg, and 30 mg with food. Panel C received 100 mg and 5 mg. In the multiple rising dose study, multiple doses of EFdA oral capsules were administered to three panels of 8 healthy adult subjects. Within each panel, subjects were administered three once weekly doses of EFdA (n=6) or matching placebo (n=2) on Days 1, 8, and 15. Panel A received 10 mg. Panel B received 30 mg, and Panel C received 100 mg.

[2] = Phase I multiple rising dose pharmacokinetics, three once weekly oral doses of EFdA capsules in healthy adults; format: in vivo, human; details: for plasma concentration (below LLQ): 10 mg dose, all subjects; for Cmax / Tmax / half-life / AUC(0-t) / AUC0-168 hr: healthy fasted subjects; for Cmax / half-life / AUC(0-t) / AUC0-168 hr: geometric mean (%GCV); for Cmax accumulation ratio Week 3/Week 1: geometric mean (min, max); for Tmax / half-life / AUC(0-t): human; for Tmax: po, median (min, max); for AUC(0-t): read-out: AUC0-168 hr
Experimental: as §1, §2

HIV-1 = system: HIV-1
Source text: The single dose monotherapy efficacy of EFDA is currently being evaluated in HIV-1 patients naïve to anti-retroviral treatment.

SIV = details: PBMCs isolated from uninfected monkeys 24 hr after drug administration; Stoddart et al. 2015; cited from earlier work
[3] = in vitro; lymphoid derived cell lines and peripheral blood mononuclear cells; Stoddart et al. 2015; cited from earlier work
[4] = EFdA in plasma, 30 mg oral once weekly, Week 3
[5] = EFdA in plasma, 100 mg oral once weekly, Week 3
[6] = single 10 mg dose, HIV-1 patients, plasma HIV-1 RNA, N=6
[7] = single 10 mg dose, adjusted by pooled historical placebo
[8] = EFdA-TP in PBMCs, EFdA 10 mg oral once weekly, Week 1
[9] = EFdA-TP in PBMCs, EFdA 30 mg oral once weekly, Week 1
[10] = EFdA-TP in PBMCs, EFdA 30 mg oral once weekly, Week 3
[11] = EFdA-TP in PBMCs, EFdA 100 mg oral once weekly, Week 1
[12] = EFdA-TP in PBMCs, EFdA 100 mg oral once weekly, Week 3
[13] = PBMCs, following multiple doses of 30 mg and 100 mg

SMILES: C#C[C@]1(CO)O[C@@H](n2cnc3c(N)nc(F)nc32)C[C@@H]1O [EFdA, 4′-Ethynyl-2-fluoro-2′-deoxyadenosine]
- VL suppression maintained (SIVmac251; 3.9 mg/kg QW oral, from Day 7 to Day 14): 7 days
- VL drop (SIVmac251; 3.9 to 18.2 mg/kg QW oral): close to maximal
- VL during the wash-out period (SIVmac251; after cessation of dosing): dose-dependent VL rebound
- control of viremia (SIVmac251; once-weekly oral versus once-daily treatment): can control viremia with once-weekly oral administration as well as once-daily treatment
- effect of food on intracellular pharmacokinetics ([1]; 30 mg with food, high-fat meal, single dose): largely unaffected by a high-fat meal
- plasma exposure versus dose ([1]; EFdA in plasma, between 5 and 400 mg single oral dose): approximately dose-proportional
- median Tmax ([1]; EFdA in plasma, single oral doses 5 to 400 mg, healthy adults): 0.5 h
- reduction of plasma Cmax in rapid initial phase ([1]; EFdA in plasma, within the first 6-12 hours, single oral dose): approximately 10 fold
- half-life ([1]; human, EFdA in plasma, single oral doses 5 to 400 mg, healthy adults, read-out: apparent terminal half-life, slow terminal phase): 50 to 60 h
- plasma concentration (below LLQ) ([2]; at 48 hr post-dose and later on week 1): < 3.41 nM
- plasma concentration (below LLQ) ([2]; at 96 hr post-dose or later in week 3): < 3.41 nM
- Cmax ([2]; EFdA in plasma, 10 mg oral once weekly, Week 1, read-out: Cmax): 193 nM
- Cmax ([2]; EFdA in plasma, 10 mg oral once weekly, Week 3, read-out: Cmax): 241 nM
- Cmax accumulation ratio Week 3/Week 1 ([2]; EFdA in plasma, 10 mg oral once weekly): 1.25 (0.70, 1.66)
- Cmax ([2]; EFdA in plasma, 30 mg oral once weekly, Week 1, read-out: Cmax): 647 nM
- Cmax ([2]; EFdA in plasma, 30 mg oral once weekly, Week 3, read-out: Cmax): 637 nM
- Cmax accumulation ratio Week 3/Week 1 ([2]; EFdA in plasma, 30 mg oral once weekly): 0.98 (0.73, 1.44)
- Cmax ([2]; EFdA in plasma, 100 mg oral once weekly, Week 1, read-out: Cmax): 1470 nM
- Cmax ([2]; EFdA in plasma, 100 mg oral once weekly, Week 3, read-out: Cmax): 1850 nM
- Cmax accumulation ratio Week 3/Week 1 ([2]; EFdA in plasma, 100 mg oral once weekly): 1.26 (0.26, 3.59)
- exposure versus dose ([2]; EFdA in plasma, 10, 30, 100 mg once weekly): generally dose-proportional
- Tmax ([2]; plasma, 10 mg, EFdA in plasma, 10 mg oral once weekly, Week 1): 1 h
- Tmax ([2]; plasma, 10 mg, EFdA in plasma, 10 mg oral once weekly, Week 3): 1 h
- Tmax ([2]; plasma, 30 mg, EFdA in plasma, 30 mg oral once weekly, Week 1): 1 h
- Tmax ([2]; plasma, 30 mg, EFdA in plasma, 30 mg oral once weekly, Week 3): 1 h
- Tmax ([2]; plasma, 100 mg, EFdA in plasma, 100 mg oral once weekly, Week 1): 2 h
- Tmax ([2]; plasma, 100 mg, EFdA in plasma, 100 mg oral once weekly, Week 3): 1 h
- half-life [2, 4]: 74.1 h
- AUC(0-t) [2, 4]: 3.97 µM·h
- half-life [2, 5]: 87.1 h
- AUC(0-t) [2, 5]: 12 µM·h
- accumulation of EFdA in plasma ([2]; plasma, multiple once weekly doses): little to no accumulation
- Change from Baseline in Viral Load, Max (HIV-1; [6]): −1.31 log10 copies/mL
- Change from Baseline in Viral Load, Median (HIV-1; [6]): −1.63 log10 copies/mL
- Change from Baseline in Viral Load, Min (HIV-1; [6]): −1.97 log10 copies/mL
- Change from Baseline in Viral Load, LS mean (95% CI) (HIV-1; single 10 mg dose, HIV-1 patients, plasma HIV-1 RNA, N=6, LDA model): −1.67 (−1.87, −1.47) log10 copies/mL
- PP = Posterior Probability of true mean difference in plasma HIV-1 RNA reduction from baseline between EFDA and placebo at least 0.5 log10 copies/mL (HIV-1; [7]): >99.9%
- Placebo Corrected Change from Baseline in Viral Load, Posterior mean (HIV-1; [7]): −1.64 log10 copies/mL
- mean (95% CI) placebo adjusted VL reduction (HIV-1; single 10 mg dose, at 168 hours post-dose, HIV-1 patients): 1.67 log 10
- recrudescence of viral load (HIV-1; single 10 mg dose, through Day 10): no evidence of recrudescence
- mean VL reduction (HIV-1; single 10 mg dose, through Day 10, HIV-1 patients): 1.78 log 10
- tolerability (HIV-1; single 10-mg dose, HIV-1 patients, limited number of mild/moderate adverse experiences): generally well tolerated
- susceptibility of PBMCs to SIV infection (SIV): refractory to SIV infection

- exposure versus dose ([2]; EFdA-TP in PBMC, EFdA 10, 30, 100 mg once weekly): generally dose-proportional
- AUC0-168 hr [2, 8]: 341 (21.2) hr * pmo1/10^6 cells
- Cmax [2, 8]: 3.78 (15.3) pmo1/10^6 cells
- AUC0-168 hr [2, 9]: 1160 (41.5) hr * pmo1/10^6 cells
- Cmax [2, 9]: 13.2 (51.3) pmo1/10^6 cells
- AUC0-168 hr [2, 10]: 1570 (12.3) hr * pmo1/10^6 cells
- Cmax [2, 10]: 19.6 (13.7) pmo1/10^6 cells
- AUC0-168 hr [2, 11]: 3020 (31.3) hr * pmo1/10^6 cells
- Cmax [2, 11]: 27.9 (21.2) pmo1/10^6 cells
- AUC0-168 hr [2, 12]: 4580 (17.6) hr * pmo1/10^6 cells
- Cmax [2, 12]: 43.0 (16.7) pmo1/10^6 cells
- accumulation of EFdA-TP AUC0-168hr and Cmax [2, 13]: modest degree of accumulation
- accumulation of EFdA-TP C168hr [2, 13]: little to no accumulation
SMILES: C#C[C@]1(COP(=O)(O)OP(=O)(O)OP(=O)(O)O)O[C@@H](n2cnc3c(N)nc(F)nc32)C[C@@H]1O [EFdA-TP, 4′-ethynyl-2-fluoro-2′-deoxyadenosine triphosphate]
- intracellular half-life [3]: exceeds 72 hrs
